Data as given in the supplement of paper PMC8239392.

Columns and labels:
[1] = tested on: TAZ-IND MCF10A-TAZ tumor cells; experiment: cell viability relative to DMSO control; higher = less cytotoxic; extreme values may be limits of the assay; conditions: 72 h
Procedure: (§1)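 TAZ-dependent (grown with 2 ug/ml dox) and TAZ-independent MCF10A-TAZ tumor-derived breast cancer stem-like cells were plated in 384-well plates and treated with serially diluted compounds (0.65-10 uM) for 72 h. Viability was read by resazurin assay and expressed as % of DMSO-treated control.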

[2] = tested on: TAZ-DEP MCF10A-TAZ tumor cells; experiment: as above; conditions: 72 h
Procedure: as §1

Row | Compound | cell viability ([1]; 0.65 µM) | cell viability ([1]; 1.25 µM) | cell viability ([1]; 2.5 µM) | cell viability ([1]; 5 µM) | cell viability ([1]; 10 µM) | cell viability ([2]; 0.65 µM) | cell viability ([2]; 1.25 µM) | cell viability ([2]; 2.5 µM) | cell viability ([2]; 5 µM) | cell viability ([2]; 10 µM)
1 | CC(=O)c1c(C)c2cnc(Nc3ccc(N4CCNCC4)cn3)nc2n(C2CCCC2)c1=O | 100% | 100% | 100% | 100% | 96% | 79% | 73% | 70% | 59% | 41%
2 | CCN(CC)CCCC(C)Nc1nc(C)cc(Nc2ccc3nc(C)cc(N)c3c2)n1 (stereo not given) | 80% | 81% | 90% | 80% | 73% | 50% | 54% | 47% | 50% | 34%
3 | CN1CCN(CCCNc2ncc(Cl)c(-c3cc4c(C(=O)NC5CC5)cccc4s3)n2)CC1 | 94% | 91% | 87% | 84% | 80% | 74% | 67% | 63% | 63% | 65%
4 | COc1ccccc1S(=O)(=O)Nc1ccc2c(c1)CN(C)C(=O)N2 | 100% | 100% | 94% | 91% | 85% | 91% | 79% | 63% | 54% | 41%
5 | Cc1c(Cc2ccc3ccccc3n2)c2cc(F)ccc2n1CC(=O)O | 90% | 94% | 90% | 77% | 55% | 90% | 82% | 69% | 57% | 33%
6 | O=C(NOC[C@H](O)CO)c1ccc(F)c(F)c1Nc1ccc(I)cc1F | 82% | 87% | 84% | 80% | 78% | 52% | 56% | 53% | 47% | 48%
7 | O=C(O)c1cc2cccc([N+](=O)[O-])c2[nH]1 | 100% | 100% | 100% | 97% | 70% | 100% | 98% | 87% | 47% | 2%
8 | O=C1NC(=O)/C(=C/c2ccc(-c3ccc(F)cc3O)o2)S1 | 72% | 75% | 72% | 67% | 63% | 62% | 53% | 51% | 46% | 43%
9 | O=[N+]([O-])C=Cc1ccc2c(c1)OCO2 | 100% | 99% | 98% | 98% | 31% | 100% | 100% | 100% | 78% | 1%
10 | CN(C)CCSSCCNC(=O)C1CCN(C(=O)CSc2ccc(Cl)cc2)CC1 [6H05] | 99% | 98% | 92% | 88% | 83% | 96% | 91% | 89% | 66% | 23%
11 | COCCOc1cnc2ccn([C@H](C)c3nnc4c(F)cc(-c5cnn(C)c5)cn34)c(=O)c2c1 [AMG 337] | 97% | 97% | 100% | 97% | 100% | 88% | 84% | 77% | 68% | 60%
